According to US7875653B2, “Emulsion comprising 1,2-alkanediols and polar oil components” (Beiersdorf AG, priority 2005, dated 2011):

Assay: Polarity: interfacial tension towards water
Type: physicochemical
Description: Oils and fats differ from one another in their polarity, which is difficult to define. It has already been proposed to adopt the interfacial tension towards water as a measure of the polarity index of an oil or of an oil phase. The lower the interfacial tension between this oil phase and water, the greater the polarity of the oil phase in question. According to the present invention, the interfacial tension is regarded as one possible measure of the polarity of a given oil component.
The interfacial tension is the force which acts on an imaginary line one meter in length at the interface between two phases. The physical unit for this interfacial tension is conventionally calculated from the force/length relationship and is usually expressed in mN/m (millinewtons divided by meters). It has a positive sign if it tends to reduce the interface. In the converse case, it has a negative sign. For the purposes of the present invention, lipids are regarded as polar if their interfacial tension towards water is less than about 20 mN/m, and as nonpolar if their interfacial tension towards water is more than about 30 mN/m. Lipids with an interfacial tension towards water between about 20 and about 30 mN/m are generally referred to as moderately polar.

[1] = polar lipids, less than about 20 mN/m
[2] = moderately polar lipids, between about 20 and about 30 mN/m

## CCCCOC(=O)CCCCC(=O)OCCCC [Cetiol B, Dibutyl adipate]
[1]
  Polarity (interfacial tension towards water): 14.3 mN/m

## CC(C)CCCCCCCOC(=O)C(C)(C)C [DUB VCI 10, Isodecyl neopentanoate]
[2]
  Polarity (interfacial tension towards water): 29.9 mN/m

## CCCCC(CC)C(=O)OCCC(C)CC(C)(C)C (stereo not shown) [Dermol 98, 2-Ethylhexanoic acid 3,5,5 trimethyl ester]
[2]
  Polarity (interfacial tension towards water): 26.2 mN/m

## CCCCCCCC(=O)OCCCCCCCC(C)C [Dermol 108, Isodecyl octanoate]
[2]
  Polarity (interfacial tension towards water): 29.6 mN/m

## CC(C)CCCCCCCOC(=O)CC(C)CC(C)(C)C (stereo not shown) [Dermol 109, Isodecyl 3,5,5-trimethyl hexanoate]
[2]
  Polarity (interfacial tension towards water): 29.1 mN/m

## CCCCCCCCCC(=O)OCCCC(C)C [Dermol IHD, Isohexyl decanoate]
[2]
  Polarity (interfacial tension towards water): 29.7 mN/m

## CCCCCCOCCCCCC [Dihexyl ether]
[2]
  Polarity (interfacial tension towards water): 29.2 mN/m

## CCCCCCCCCCC(CO)CCCCCCCC (stereo not shown) [Eutanol G, Octyldodecanol]
[2]
  Polarity (interfacial tension towards water): 24.8 mN/m

## CCCCCCC(CCCC)C(=O)O (stereo not shown) [Isocarb 12, Butyl octanoic acid]
[2]
  Polarity (interfacial tension towards water): 22.1 mN/m

## CCCCCCCCCCCCCCCCCC(=O)OC(C)C [Isopropyl stearate]
[2]
  Polarity (interfacial tension towards water): 21.9 mN/m

## CCCCCCCCCCCCCC(=O)OCC(CCCCCCCC)CCCCCCCCCC (stereo not shown) [M.O.D., Octyldodecyl myristate]
[2]
  Polarity (interfacial tension towards water): 22.1 mN/m

## CCCCCCCCCCCCCCCCCCOC(=O)CCCCCC [Tegosoft SH, Stearyl heptanoate]
[1]
  Polarity (interfacial tension towards water): 17.8 mN/m

## CCCCCCCC(=O)OCC(COC(=O)CCCCCCC)OC(=O)CCCCCCC [Trivent OCG, Tricaprylin]
[2]
  Polarity (interfacial tension towards water): 20.2 mN/m

## Isotridecyl 3,5,5 trimethyl hexanona-noate [Dermol 139]
[2]
  Polarity (interfacial tension towards water): 24.5 mN/m

## PEG 2 Diethylene hexanoate [Dermol 488]
[1]
  Polarity (interfacial tension towards water): 10.1 mN/m

## Triisostearin [Prisorine 2041 GTIS]
[1]
  Polarity (interfacial tension towards water): 2.4 mN/m
